{
  "source": "the supplement of paper PMC10307832",
  "experiment_in_all_cases": "relative viability (nuclei count vs DMSO), 5 days (fraction); higher = more cells survive",
  "key": {"201T": {"test_system": "201T", "how_it_was_run": "(§1)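 Relative viability is defined as nuclei in treated wells over nuclei in vehicle wells. Duplicate plates were run and medians reported. Lung cancer cell lines in 1536-well plates were dosed by pin tool one day after seeding, with one drug or with a fixed anchor-drug dose plus five library-drug doses (not always all listed) in √10 steps, and nuclei were counted after 5 days.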"}, "BEN": {"test_system": "BEN", "how_it_was_run": "as §1"}, "EMC-BAC-2": {"test_system": "EMC-BAC-2", "how_it_was_run": "as §1"}, "HARA": {"test_system": "HARA", "how_it_was_run": "as §1"}, "HCC-44": {"test_system": "HCC-44", "how_it_was_run": "as §1"}, "LCLC-103H": {"test_system": "LCLC-103H", "how_it_was_run": "as §1"}, "LOU-NH91": {"test_system": "LOU-NH91", "how_it_was_run": "as §1"}, "NCI-H1395": {"test_system": "NCI-H1395", "how_it_was_run": "as §1"}, "NCI-H1666": {"test_system": "NCI-H1666", "how_it_was_run": "as §1"}, "NCI-H1993": {"test_system": "NCI-H1993", "how_it_was_run": "as §1"}, "NCI-H2009": {"test_system": "NCI-H2009", "how_it_was_run": "as §1"}, "NCI-H2023": {"test_system": "NCI-H2023", "how_it_was_run": "as §1"}, "NCI-H2087": {"test_system": "NCI-H2087", "how_it_was_run": "as §1"}, "NCI-H2126": {"test_system": "NCI-H2126", "how_it_was_run": "as §1"}, "NCI-H2347": {"test_system": "NCI-H2347", "how_it_was_run": "as §1"}, "NCI-H23": {"test_system": "NCI-H23", "how_it_was_run": "as §1"}, "NCI-H3122": {"test_system": "NCI-H3122", "how_it_was_run": "as §1"}, "NCI-H441": {"test_system": "NCI-H441", "how_it_was_run": "as §1"}, "NCI-H596": {"test_system": "NCI-H596", "how_it_was_run": "as §1"}, "NCI-H647": {"test_system": "NCI-H647", "how_it_was_run": "as §1"}, "NCI-H650": {"test_system": "NCI-H650", "how_it_was_run": "as §1"}, "NCI-H727": {"test_system": "NCI-H727", "how_it_was_run": "as §1"}, "NCI-H838": {"test_system": "NCI-H838", "how_it_was_run": "as §1"}},
  "data": [
    {"smiles": "Oc1nc(-c2ccc(C(F)(F)F)cc2)nc2c1CSCC2", "note": "[XAV939] + Cc1nc(NC(=O)N2CCC[C@H]2C(N)=O)sc1-c1ccnc(C(C)(C)C(F)(F)F)c1 [Alpelisib] (partner 2 µM)", "values": [
      {"measurement": "relative viability", "setting": "201T; first compound 0.08 µM", "result": 1},
      {"measurement": "relative viability", "setting": "201T; first compound 0.253 µM", "result": 0.875},
      {"measurement": "relative viability", "setting": "201T; first compound 0.8 µM", "result": 0.947},
      {"measurement": "relative viability", "setting": "201T; first compound 2.53 µM", "result": 0.902},
      {"measurement": "relative viability", "setting": "BEN; first compound 0.08 µM", "result": 1.08},
      {"measurement": "relative viability", "setting": "BEN; first compound 0.253 µM", "result": 0.921},
      {"measurement": "relative viability", "setting": "BEN; first compound 0.8 µM", "result": 1.01},
      {"measurement": "relative viability", "setting": "EMC-BAC-2; first compound 0.08 µM", "result": 0.859},
      {"measurement": "relative viability", "setting": "EMC-BAC-2; first compound 0.253 µM", "result": 0.69},
      {"measurement": "relative viability", "setting": "EMC-BAC-2; first compound 0.8 µM", "result": 0.621},
      {"measurement": "relative viability", "setting": "EMC-BAC-2; first compound 2.53 µM", "result": 0.367},
      {"measurement": "relative viability", "setting": "HARA; first compound 0.08 µM", "result": 1.02},
      {"measurement": "relative viability", "setting": "HARA; first compound 0.253 µM", "result": 0.643},
      {"measurement": "relative viability", "setting": "HARA; first compound 0.8 µM", "result": 0.842},
      {"measurement": "relative viability", "setting": "HARA; first compound 2.53 µM", "result": 0.709},
      {"measurement": "relative viability", "setting": "HCC-44; first compound 0.08 µM", "result": 0.953},
      {"measurement": "relative viability", "setting": "HCC-44; first compound 0.253 µM", "result": 0.675},
      {"measurement": "relative viability", "setting": "HCC-44; first compound 0.8 µM", "result": 0.775},
      {"measurement": "relative viability", "setting": "HCC-44; first compound 2.53 µM", "result": 0.737},
      {"measurement": "relative viability", "setting": "LCLC-103H; first compound 0.08 µM", "result": 0.941},
      {"measurement": "relative viability", "setting": "LCLC-103H; first compound 0.253 µM", "result": 0.766},
      {"measurement": "relative viability", "setting": "LCLC-103H; first compound 0.8 µM", "result": 0.852},
      {"measurement": "relative viability", "setting": "LCLC-103H; first compound 2.53 µM", "result": 0.873},
      {"measurement": "relative viability", "setting": "LOU-NH91; first compound 0.08 µM", "result": 0.687},
      {"measurement": "relative viability", "setting": "LOU-NH91; first compound 0.253 µM", "result": 0.659},
      {"measurement": "relative viability", "setting": "LOU-NH91; first compound 0.8 µM", "result": 0.714},
      {"measurement": "relative viability", "setting": "LOU-NH91; first compound 2.53 µM", "result": 0.648},
      {"measurement": "relative viability", "setting": "NCI-H1395; first compound 0.08 µM", "result": 1.09},
      {"measurement": "relative viability", "setting": "NCI-H1395; first compound 0.253 µM", "result": 1.03},
      {"measurement": "relative viability", "setting": "NCI-H1395; first compound 0.8 µM", "result": 1.08},
      {"measurement": "relative viability", "setting": "NCI-H1395; first compound 2.53 µM", "result": 1.06},
      {"measurement": "relative viability", "setting": "NCI-H1666; first compound 0.08 µM", "result": 0.87},
      {"measurement": "relative viability", "setting": "NCI-H1666; first compound 0.253 µM", "result": 0.63},
      {"measurement": "relative viability", "setting": "NCI-H1666; first compound 0.8 µM", "result": 0.721},
      {"measurement": "relative viability", "setting": "NCI-H1666; first compound 2.53 µM", "result": 0.591},
      {"measurement": "relative viability", "setting": "NCI-H1993; first compound 0.8 µM", "result": 0.635},
      {"measurement": "relative viability", "setting": "NCI-H1993; first compound 2.53 µM", "result": 0.633},
      {"measurement": "relative viability", "setting": "NCI-H2009; first compound 0.08 µM", "result": 1.22},
      {"measurement": "relative viability", "setting": "NCI-H2009; first compound 0.253 µM", "result": 1.2},
      {"measurement": "relative viability", "setting": "NCI-H2009; first compound 0.8 µM", "result": 1.12},
      {"measurement": "relative viability", "setting": "NCI-H2009; first compound 2.53 µM", "result": 0.987},
      {"measurement": "relative viability", "setting": "NCI-H2023; first compound 0.08 µM", "result": 0.572},
      {"measurement": "relative viability", "setting": "NCI-H2023; first compound 0.253 µM", "result": 0.524},
      {"measurement": "relative viability", "setting": "NCI-H2023; first compound 0.8 µM", "result": 0.525},
      {"measurement": "relative viability", "setting": "NCI-H2023; first compound 2.53 µM", "result": 0.412},
      {"measurement": "relative viability", "setting": "NCI-H2087; first compound 0.08 µM", "result": 1.24},
      {"measurement": "relative viability", "setting": "NCI-H2087; first compound 0.253 µM", "result": 0.914},
      {"measurement": "relative viability", "setting": "NCI-H2087; first compound 0.8 µM", "result": 1.09},
      {"measurement": "relative viability", "setting": "NCI-H2087; first compound 2.53 µM", "result": 0.889},
      {"measurement": "relative viability", "setting": "NCI-H2126; first compound 0.08 µM", "result": 0.748},
      {"measurement": "relative viability", "setting": "NCI-H2126; first compound 0.253 µM", "result": 0.661},
      {"measurement": "relative viability", "setting": "NCI-H2126; first compound 0.8 µM", "result": 0.664},
      {"measurement": "relative viability", "setting": "NCI-H2126; first compound 2.53 µM", "result": 0.563},
      {"measurement": "relative viability", "setting": "NCI-H2347; first compound 0.08 µM", "result": 1.08},
      {"measurement": "relative viability", "setting": "NCI-H2347; first compound 0.253 µM", "result": 0.97},
      {"measurement": "relative viability", "setting": "NCI-H2347; first compound 0.8 µM", "result": 1.05},
      {"measurement": "relative viability", "setting": "NCI-H2347; first compound 2.53 µM", "result": 0.926},
      {"measurement": "relative viability", "setting": "NCI-H23; first compound 0.08 µM", "result": 0.663},
      {"measurement": "relative viability", "setting": "NCI-H23; first compound 0.253 µM", "result": 0.659},
      {"measurement": "relative viability", "setting": "NCI-H23; first compound 0.8 µM", "result": 0.627},
      {"measurement": "relative viability", "setting": "NCI-H23; first compound 2.53 µM", "result": 0.456},
      {"measurement": "relative viability", "setting": "NCI-H3122; first compound 0.08 µM", "result": 0.812},
      {"measurement": "relative viability", "setting": "NCI-H3122; first compound 0.253 µM", "result": 0.575},
      {"measurement": "relative viability", "setting": "NCI-H3122; first compound 0.8 µM", "result": 0.757},
      {"measurement": "relative viability", "setting": "NCI-H3122; first compound 2.53 µM", "result": 0.358},
      {"measurement": "relative viability", "setting": "NCI-H441; first compound 0.08 µM", "result": 0.687},
      {"measurement": "relative viability", "setting": "NCI-H441; first compound 0.253 µM", "result": 0.486},
      {"measurement": "relative viability", "setting": "NCI-H441; first compound 0.8 µM", "result": 0.742},
      {"measurement": "relative viability", "setting": "NCI-H441; first compound 2.53 µM", "result": 0.657},
      {"measurement": "relative viability", "setting": "NCI-H596; first compound 0.08 µM", "result": 0.456},
      {"measurement": "relative viability", "setting": "NCI-H596; first compound 0.253 µM", "result": 0.587},
      {"measurement": "relative viability", "setting": "NCI-H596; first compound 0.8 µM", "result": 0.534},
      {"measurement": "relative viability", "setting": "NCI-H596; first compound 2.53 µM", "result": 0.493},
      {"measurement": "relative viability", "setting": "NCI-H647; first compound 0.08 µM", "result": 1.25},
      {"measurement": "relative viability", "setting": "NCI-H647; first compound 0.253 µM", "result": 1},
      {"measurement": "relative viability", "setting": "NCI-H647; first compound 0.8 µM", "result": 1.06},
      {"measurement": "relative viability", "setting": "NCI-H647; first compound 2.53 µM", "result": 0.922},
      {"measurement": "relative viability", "setting": "NCI-H650; first compound 0.08 µM", "result": 1.3},
      {"measurement": "relative viability", "setting": "NCI-H650; first compound 0.253 µM", "result": 0.959},
      {"measurement": "relative viability", "setting": "NCI-H650; first compound 0.8 µM", "result": 1.15},
      {"measurement": "relative viability", "setting": "NCI-H650; first compound 2.53 µM", "result": 0.864},
      {"measurement": "relative viability", "setting": "NCI-H727; first compound 0.08 µM", "result": 0.656},
      {"measurement": "relative viability", "setting": "NCI-H727; first compound 0.253 µM", "result": 0.38},
      {"measurement": "relative viability", "setting": "NCI-H727; first compound 0.8 µM", "result": 0.626},
      {"measurement": "relative viability", "setting": "NCI-H727; first compound 2.53 µM", "result": 0.65},
      {"measurement": "relative viability", "setting": "NCI-H838; first compound 0.08 µM", "result": 1.08},
      {"measurement": "relative viability", "setting": "NCI-H838; first compound 0.253 µM", "result": 0.849},
      {"measurement": "relative viability", "setting": "NCI-H838; first compound 0.8 µM", "result": 0.909},
      {"measurement": "relative viability", "setting": "NCI-H838; first compound 2.53 µM", "result": 0.604}
    ]}
  ]
}
